“And” between values parts separate entries of the source, which are not always exact repeats. Equal values may be shown once. Inconclusive results and toxic doses are left out. Rule for the calls: active = survival T/C of 150% or more; inactive = T/C below 125% in these data.
Test system: CD2F1 mice, L1210 leukemia ip, survival T/C
Experiment: NCI In Vivo Anticancer Drug Screen. Data for tumor model L1210 Leukemia (intraperitoneal) in CD2F1 (CDF1) mice
Details: higher = longer survival
Summary of the method: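 Read-out first: treated-group measurement over vehicle-control measurement, expressed as a ratio. Animals bore a transplanted tumor line and were dosed with compound or vehicle.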

[1] = endpoint: mean survival time, dose: 100.0 mg/kg/injection, schedule: Q01DX009 (ip), vehicle: saline with Tween-80
[2] = endpoint: mean survival time, dose: 200.0 mg/kg/injection, schedule: Q01DX009 (ip), vehicle: saline with Tween-80
[3] = endpoint: mean survival time, dose: 400.0 mg/kg/injection, schedule: Q01DX009 (ip), vehicle: saline with Tween-80
[4] = endpoint: mean survival time, dose: 100.0 mg/kg/injection, schedule: Q01DX001 (ip), vehicle: saline
[5] = endpoint: mean survival time, dose: 200.0 mg/kg/injection, schedule: Q01DX001 (ip), vehicle: saline
[6] = endpoint: mean survival time, dose: 400.0 mg/kg/injection, schedule: Q01DX001 (ip), vehicle: saline
[7] = endpoint: mean survival time, dose: 100.0 mg/kg/injection, schedule: Q04DX003 (ip), vehicle: saline with Tween-80
[8] = endpoint: mean survival time, dose: 200.0 mg/kg/injection, schedule: Q04DX003 (ip), vehicle: saline with Tween-80
[9] = endpoint: mean survival time, dose: 400.0 mg/kg/injection, schedule: Q04DX003 (ip), vehicle: saline with Tween-80
[10] = endpoint: mean survival time, dose: 100.0 mg/kg/injection, schedule: Q01DX001 (ip), vehicle: saline with Tween-80
[11] = endpoint: mean survival time, dose: 100.0 mg/kg/injection, schedule: Q01DX001 (ip), vehicle: Klucel (hydroxypropylcellulose) (HPC)
[12] = endpoint: mean survival time, dose: 200.0 mg/kg/injection, schedule: Q01DX001 (ip), vehicle: Klucel (hydroxypropylcellulose) (HPC)
[13] = endpoint: mean survival time, dose: 400.0 mg/kg/injection, schedule: Q01DX001 (ip), vehicle: Klucel (hydroxypropylcellulose) (HPC)
[14] = endpoint: mean survival time, dose: 25.0 mg/kg/injection, schedule: Q04DX002 (ip), vehicle: saline with Tween-80
[15] = endpoint: mean survival time, dose: 50.0 mg/kg/injection, schedule: Q04DX002 (ip), vehicle: saline with Tween-80
[16] = endpoint: mean survival time, dose: 100.0 mg/kg/injection, schedule: Q04DX002 (ip), vehicle: saline with Tween-80
[17] = endpoint: mean survival time, dose: 200.0 mg/kg/injection, schedule: Q04DX002 (ip), vehicle: saline with Tween-80

Measured: T/C

NC(=O)C(NCCn1cnc2c(N)ncnc21)C(N)=O
inactive: endpoint: mean survival time, dose: 1.25 mg/kg/injection, schedule: Q01DX005 (ip), vehicle: water 92 % of control | endpoint: mean survival time, dose: 2.5 mg/kg/injection, schedule: Q01DX005 (ip), vehicle: water 92 % of control | endpoint: mean survival time, dose: 5.0 mg/kg/injection, schedule: Q01DX005 (ip), vehicle: water 92 % of control | endpoint: mean survival time, dose: 10.0 mg/kg/injection, schedule: Q01DX005 (ip), vehicle: water 95 % of control | endpoint: mean survival time, dose: 20.0 mg/kg/injection, schedule: Q01DX005 (ip), vehicle: water 95 % of control

CC(=O)OCC1OC(n2ncc3c2ncn2nnnc32)C(OC(C)=O)C1OC(C)=O (centres undefined)
inactive: endpoint: mean survival time, dose: 18.75 mg/kg/injection, schedule: Q01DX005 (ip), vehicle: distilled water + alcohol 100 % of control | endpoint: mean survival time, dose: 37.5 mg/kg/injection, schedule: Q01DX005 (ip), vehicle: distilled water + alcohol 91 % of control | endpoint: mean survival time, dose: 75.0 mg/kg/injection, schedule: Q01DX005 (ip), vehicle: distilled water + alcohol 103 % of control | endpoint: mean survival time, dose: 150.0 mg/kg/injection, schedule: Q01DX005 (ip), vehicle: distilled water + alcohol 100 % of control | endpoint: mean survival time, dose: 300.0 mg/kg/injection, schedule: Q01DX005 (ip), vehicle: distilled water + alcohol 103 % of control

CC(=O)OCc1ccc2ccccc2c1
inactive: [1] 100 % of control | [2] 102 % of control | [3] 118 % of control

CCC1(C)N=C(C)C(C)S1 (centres undefined)
inactive: [1] 89 % of control | [2] 100 % of control | [3] 91 % of control

COC1OC(COC(c2ccccc2)(c2ccccc2)c2ccccc2)C(O)C(O)C1O (centres undefined)
inactive: [4] 100 % of control | [1] 106 % of control | [5] 97 % of control | [2] 96 % of control | [6] 92 % of control | [3] 98 % of control

CC1(C)C(C#N)C(=O)N(Cc2ccccc2)C(=O)C1C#N (centres undefined)
inactive: endpoint: mean survival time, dose: 50.0 mg/kg/injection, schedule: Q01DX009 (ip), vehicle: saline with Tween-80 98 % of control | [1] 107 % of control | [2] 98 % of control

COC(=O)/C(=C\c1ccccc1Cl)C(C)=O
inactive: [7] 104 % of control | [8] 98 % of control | [9] 102 % of control

CC(O)(c1ccc(Cl)cc1)c1ccc(Cl)cc1
inactive: [7] 106 % of control | [8] 101 % of control | [9] 90 % of control

CC1(C)N=C(N)N=C(N)N1c1cc(Cl)cc(CCNC(=O)Nc2ccc(S(=O)(=O)F)cc2)c1
inactive: [10] 92 % of control

CCOC(=O)Nc1cc(Nc2ccccc2)c2[nH]cnc2n1
inactive: endpoint: mean survival time, dose: 12.5 mg/kg/injection, schedule: Q01DX001 (ip), vehicle: Klucel (hydroxypropylcellulose) (HPC) 96 % of control | endpoint: mean survival time, dose: 25.0 mg/kg/injection, schedule: Q01DX001 (ip), vehicle: Klucel (hydroxypropylcellulose) (HPC) 93 % of control | endpoint: mean survival time, dose: 50.0 mg/kg/injection, schedule: Q01DX001 (ip), vehicle: Klucel (hydroxypropylcellulose) (HPC) 93 % of control | [11] 93 % of control | [12] 95 % of control | [13] 93 % of control

C(=N\N=C\c1ccco1)/c1ccco1
inactive: endpoint: mean survival time, dose: 25.0 mg/kg/injection, schedule: Q01DX001 (ip), vehicle: saline with Tween-80 87 % of control | endpoint: mean survival time, dose: 50.0 mg/kg/injection, schedule: Q01DX001 (ip), vehicle: saline with Tween-80 97 % of control | [10] 100 % of control | [7] 97 % of control | [8] 101 % of control

CN=C1C=C/C(=N/N=c2/ccn(O)cc2C)C=C1C
inactive: [14] 106 % of control | [15] 95 % of control | [16] 111 % of control

O=C1CCC(=O)N1N1C(=O)CCC1=O
inactive: [11] 101 % of control | [12] 96 % of control | [13] 96 % of control

Cn1nc(C#N)c2ccccc21
inactive: [4] 100 % of control | [5] 102 % of control | [6] 103 % of control

O=C1O/C(=C2/OC(=O)c3ccccc32)c2ccccc21
inactive: [15] 92 % of control | [16] 92 % of control | [17] 92 % of control | endpoint: mean survival time, dose: 400.0 mg/kg/injection, schedule: Q04DX002 (ip), vehicle: saline with Tween-80 96 % of control

CC(NNC(=S)N(C)C1CCCCC1)c1cc2ccccc2cn1 (centres undefined)
inactive: endpoint: median survival time, dose: 12.5 mg/kg/injection, schedule: Q01DX005 (ip), vehicle: saline with Tween-80 103 % of control | endpoint: median survival time, dose: 12.5 mg/kg/injection, schedule: Q01DX005 (ip), vehicle: saline 97 % of control | endpoint: median survival time, dose: 25.0 mg/kg/injection, schedule: Q01DX005 (ip), vehicle: saline with Tween-80 120 % of control | endpoint: median survival time, dose: 25.0 mg/kg/injection, schedule: Q01DX005 (ip), vehicle: saline 102 % of control and 109 % of control | endpoint: median survival time, dose: 50.0 mg/kg/injection, schedule: Q01DX005 (ip), vehicle: saline with Tween-80 90 % of control | endpoint: median survival time, dose: 50.0 mg/kg/injection, schedule: Q01DX005 (ip), vehicle: saline 113 % of control and 114 % of control

O=C(C1CC=C2c3ccccc3CCC2C1C(=O)N1CCCCC1)N1CCCCC1 (centres undefined)
inactive: endpoint: mean survival time, dose: 75.0 mg/kg/injection, schedule: Q01DX001 (ip), vehicle: saline 104 % of control | endpoint: mean survival time, dose: 150.0 mg/kg/injection, schedule: Q01DX001 (ip), vehicle: saline 98 % of control | endpoint: mean survival time, dose: 300.0 mg/kg/injection, schedule: Q01DX001 (ip), vehicle: saline 107 % of control

CCCCCCCC(=O)Nc1c(C)cccc1C
inactive: [1] 96 % of control | [2] 88 % of control | [3] 91 % of control

O=C(N/N=C/c1ccc(O)cc1)c1ccccc1
inactive: endpoint: mean survival time, dose: 100.0 mg/kg/injection, schedule: Q01DX001 (ip), vehicle: other 100 % of control | endpoint: mean survival time, dose: 100.0 mg/kg/injection, schedule: Q01DX009 (ip), vehicle: Klucel (hydroxypropylcellulose) (HPC) 100 % of control | endpoint: mean survival time, dose: 200.0 mg/kg/injection, schedule: Q01DX001 (ip), vehicle: other 94 % of control | endpoint: mean survival time, dose: 200.0 mg/kg/injection, schedule: Q01DX009 (ip), vehicle: Klucel (hydroxypropylcellulose) (HPC) 96 % of control | endpoint: mean survival time, dose: 400.0 mg/kg/injection, schedule: Q01DX001 (ip), vehicle: other 103 % of control | endpoint: mean survival time, dose: 400.0 mg/kg/injection, schedule: Q01DX009 (ip), vehicle: Klucel (hydroxypropylcellulose) (HPC) 94 % of control

C[n+]1ccc(/C=C\c2ccc(N(CCCl)CCCl)cc2)c2ccccc21
inactive: endpoint: mean survival time, dose: 6.25 mg/kg/injection, schedule: Q01DX009 (ip), vehicle: Klucel (hydroxypropylcellulose) (HPC) 98 % of control | endpoint: mean survival time, dose: 12.5 mg/kg/injection, schedule: Q01DX009 (ip), vehicle: Klucel (hydroxypropylcellulose) (HPC) 101 % of control | endpoint: mean survival time, dose: 25.0 mg/kg/injection, schedule: Q01DX009 (ip), vehicle: Klucel (hydroxypropylcellulose) (HPC) 112 % of control

CC1(C)N=C(N)N=C(N)N1c1ccc(OCCCCNC(=O)c2cccc(S(=O)(=O)F)c2)c(Cl)c1
inactive: endpoint: mean survival time, dose: 5.0 mg/kg/injection, schedule: Q01DX001 (ip), vehicle: saline with Tween-80 105 % of control | endpoint: mean survival time, dose: 5.0 mg/kg/injection, schedule: Q01DX009 (ip), vehicle: saline 102 % of control | endpoint: mean survival time, dose: 10.0 mg/kg/injection, schedule: Q01DX001 (ip), vehicle: saline with Tween-80 95 % of control | endpoint: mean survival time, dose: 10.0 mg/kg/injection, schedule: Q01DX009 (ip), vehicle: saline 98 % of control | endpoint: mean survival time, dose: 20.0 mg/kg/injection, schedule: Q01DX001 (ip), vehicle: saline with Tween-80 94 % of control | endpoint: mean survival time, dose: 20.0 mg/kg/injection, schedule: Q01DX009 (ip), vehicle: saline 98 % of control

COC(=O)C1C(=O)CC2N(C)C1C(C)(C)C2(C)C (centres undefined)
inactive: [16] 115 % of control | [17] 107 % of control

C(#Cc1ccccc1)c1ccccc1.Cc1ccc([PH+](c2ccccc2)c2ccccc2)cc1.Cc1ccc([PH+](c2ccccc2)c2ccccc2)cc1.[Pt]
inactive: endpoint: median survival time, dose: 3.13 mg/kg/injection, schedule: Q04DX003 (ip), vehicle: distilled water + Tween-80 100 % of control | endpoint: median survival time, dose: 6.25 mg/kg/injection, schedule: Q04DX003 (ip), vehicle: distilled water + Tween-80 101 % of control | endpoint: median survival time, dose: 12.5 mg/kg/injection, schedule: Q04DX003 (ip), vehicle: distilled water + Tween-80 105 % of control | endpoint: median survival time, dose: 25.0 mg/kg/injection, schedule: Q04DX003 (ip), vehicle: distilled water + Tween-80 89 % of control | endpoint: median survival time, dose: 50.0 mg/kg/injection, schedule: Q04DX003 (ip), vehicle: distilled water + Tween-80 90 % of control | endpoint: median survival time, dose: 100.0 mg/kg/injection, schedule: Q04DX003 (ip), vehicle: distilled water + Tween-80 94 % of control

C=CCNC(=S)n1cnc(N)n1
inactive: [14] 104 % of control | [15] 96 % of control | [16] 104 % of control and 105 % of control

Source: PubChem BioAssay AID256 (DTP/NCI, 2004)
